# Test results published in ChEMBL document CHEMBL5532671, “Leucosceptrane Sesterterpenoids as a New Type of Natural Immunosuppressive Agents in Treating Sepsis” (J Med Chem, 2024).
# How the values were obtained:
# T-cell [1] = assay: Immunosuppressive activity in C57BL/6 female mouse T-cells isolated from spleen assessed as inhibition of LPS-induced IFN-gamma secretion at 20 uM treated for 48 hrs by ELISA based assay relative to control; type: functional; conditions: for inhibition at 20 µM: C57BL/6, T-cell
# T-cell [2] = assay: Inhibition of proliferation of C57BL/6 female mouse T-cells isolated from spleen at 20 uM relative to control; type: functional; conditions: for inhibition at 20 µM: C57BL/6, T-cell
# T-cell [3] = assay: Immunosuppressive activity in C57BL/6 female mouse T-cells isolated from spleen assessed as inhibition of LPS-induced IFN-gamma secretion treated for 48 hrs by ELISA based assay; type: functional; conditions: C57BL/6, T-cell
# T-cell [4] = assay: Inhibition of proliferation of C57BL/6 female mouse T-cells isolated from spleen; type: functional, cell-based; conditions: C57BL/6, T-cell
Compound,inhibition at 20 µM (T-cell [1]) [%],inhibition at 20 µM (T-cell [2]) [%],IC50 (T-cell [3]) [µM],inhibition (T-cell [1]) [%],inhibition (T-cell [2]) [%],IC50 (T-cell [4]) [µM]
CC(C)=CC(=O)[C@@]1(O)[C@@H](C)[C@@H]2CC[C@H](C)[C@H]2C(=O)[C@]1(O)[C@@H](C)CC[C@]1(O)OC(=O)C=C1C,48.6,< 10,–,–,–,–
CC(C)=C[C@H]1O[C@@](C)(CC[C@@]2(O)OC(=O)C=C2C)C2=C1[C@@H](C)[C@@H]1CC[C@H](C)[C@]1(O)C2=O,22.4,< 10,–,–,–,–
CC(C)=CC(=O)[C@@]1(O)[C@@H](C)[C@@H]2CC[C@H](C)[C@H]2C(=O)[C@]1(O)[C@@H](C)CCc1occc1C,41.6,< 10,–,–,–,–
CC(C)=C[C@H]1O[C@@](C)(C[C@H]2C(=O)C(C)=C[C@@H]2O)[C@@H]2C(=O)[C@@]3(O)[C@@H](C)CC[C@H]3[C@H](C)[C@@]21O,57.3,11.8,11.6,–,–,–
CC(C)=C[C@H]1O[C@@](C)(CC[C@@H]2OC(=O)C=C2C)C2=C1[C@@H](C)[C@@H]1CC[C@H](C)[C@]1(O)C2=O,18.7,< 10,–,–,–,–
CC(C)=C[C@H]1O[C@@](C)(C/C=C2/OC(=O)C=C2C)C2=C1[C@@H](C)[C@@H]1CC[C@H](C)[C@@]1(O)C2=O,32.5,< 10,–,–,–,–
CC(C)=C[C@H]1O[C@@](C)(CCc2occc2C)[C@@H]2C(=O)[C@@H]3[C@@H](CC[C@@H]3C)[C@H](C)[C@@]21O,53.7,< 10,19.9,–,–,–
CC(C)=C[C@H]1O[C@@](C)(C/C=C2\NC(=O)C=C2C)[C@@H]2C(=O)[C@@H]3[C@@H](CC[C@@H]3C)[C@H](C)[C@@]21O,56.4,13.8,19.6,–,–,–
CC(C)=C[C@H]1O[C@@]2(C)C[C@H](c3occc3C)O[C@]13[C@H]2C(=O)[C@H]1[C@@H](CC[C@@H]1C)[C@@H]3C,49.7,13.6,–,–,–,–
CC(C)=C[C@H]1O[C@@](C)(CC[C@@H]2OC(=O)C=C2C)[C@@H]2C(=O)[C@@H]3[C@@H](CC[C@@H]3C)[C@H](C)[C@@]21O,37.1,25.4,–,–,–,–
CC(C)=C[C@H]1O[C@@](C)(C/C=C2\NC(=O)C=C2C)[C@@H]2C(=O)[C@H]3[C@@H](CC[C@@H]3C)[C@H](C)[C@@]21O,16.9,< 10,–,–,–,–
CC(C)=C[C@H]1O[C@@](C)(CC(=O)O)C2=C1[C@@H](C)[C@@H]1CC[C@H](C)[C@H]1C2=O,39.9,25,–,–,–,–
CC(C)=C[C@H]1O[C@@](C)(CCc2occc2C)[C@@H]2C(=O)[C@H]3[C@@H](CC[C@@H]3C)[C@H](C)[C@@]21O,63.9,12.3,9.8,–,–,–
CC(C)=CC(=O)[C@@]1(O)[C@@H](C)[C@@H]2CC[C@H](C)[C@H]2C(=O)[C@]1(O)[C@H](C)CC[C@]1(O)OC(=O)C=C1C,41.3,11.7,–,–,–,–
CC(C)=C[C@H]1O[C@@](C)(CCc2occc2C)[C@@H]2C(=O)[C@]3(O)[C@@H](C)CC[C@H]3[C@H](C)[C@@]21O,56.8,< 10,9.15,–,–,–
CC(C)=CC(=O)[C@@]1(O)[C@@H](C)[C@@H]2CC[C@H](C)[C@H]2C(=O)[C@]1(O)[C@H](C)CCc1occc1C,73.6,27.9,5.59,–,–,–
CC(C)=CC(=O)[C@]12O[C@]3(CC[C@H](C)[C@@]1(O)C(=O)[C@H]1[C@@H](CC[C@@H]1C)[C@@H]2C)OC(=O)C=C3C,43.3,< 10,–,–,–,–
CC(C)=C[C@H]1O[C@@](C)(CC[C@@]2(O)OC(=O)C=C2C)C2=C1[C@@H](C)[C@@H]1CC[C@H](C)[C@@]1(O)C2=O,36.8,< 10,–,–,–,–
CC(C)=C[C@H]1O[C@@](C)(C/C=C2\NC(=O)C=C2C)C2=C1[C@@H](C)[C@@H]1CC[C@H](C)[C@]1(O)C2=O,66,10.4,26.8,–,–,–
CC(C)=C[C@H]1O[C@@](C)(CC[C@@H]2OC(=O)C=C2C)[C@@H]2C(=O)[C@@]3(O)[C@@H](C)CC[C@H]3[C@H](C)[C@@]21O,39.1,13.2,–,–,–,–
CC(C)=C[C@H]1O[C@@](C)(C/C=C2\OC(=O)C=C2C)[C@@H]2C(=O)[C@]3(O)[C@@H](C)CC[C@H]3[C@H](C)[C@@]21O,45.4,< 10,–,–,–,–
CC(C)=CC(=O)[C@@]1(O)[C@@H](C)[C@@H]2CC[C@H](C)[C@H]2C(=O)[C@@]12O[C@@H](c1occc1C)C[C@@H]2C,34.6,< 10,–,–,–,–

Compound,inhibition at 20 µM (T-cell [1]) [%],inhibition at 20 µM (T-cell [2]) [%],IC50 (T-cell [3]) [µM],inhibition (T-cell [1]) [%],inhibition (T-cell [2]) [%],IC50 (T-cell [4]) [µM]
CC(C)=CC(=O)[C@@]1(O)[C@@H](C)[C@@H]2CC[C@H](C)[C@H]2C(=O)[C@@]12O[C@@H](c1occc1C)C[C@H]2C,63.4,< 10,16.7,–,–,–
CC(C)=C[C@H]1O[C@@](C)(CCC(=O)O)C2=C1[C@@H](C)[C@@H]1CC[C@H](C)[C@]1(O)C2=O,37.9,20.2,–,–,–,–
CC(C)=C[C@H]1O[C@@](C)(C[C@@H]2C(=O)C(C)=C[C@H]2O)[C@@H]2C(=O)[C@@]3(O)[C@@H](C)CC[C@H]3[C@H](C)[C@@]21O,65.3,11,11.9,–,–,–
CCC(=O)CC[C@H](C)[C@@]1(O)C(=O)[C@H]2[C@@H](CC[C@@H]2C)[C@H](C)[C@]1(O)C(=O)C=C(C)C,32.6,< 10,–,–,–,–
CC(C)=C[C@H]1O[C@@](C)(CC[C@@H]2OC(=O)C=C2C)C2=C1[C@@H](C)[C@@H]1CC[C@H](C)[C@@H]1C2=O,31.3,< 10,–,–,–,–
CC(C)=C[C@H]1O[C@@](C)(CCC(=O)O)C2=C1[C@@H](C)[C@@H]1CC[C@H](C)[C@H]1C2=O,45.9,18.2,–,–,–,–
CC(C)=C[C@H]1O[C@@]2(C)C[C@H]([C@H]3NC(=O)C=C3C)O[C@]13[C@H]2C(=O)[C@H]1[C@@H](CC[C@@H]1C)[C@@H]3C,43.1,13.1,–,–,–,–
CC(C)=C[C@H]1O[C@@](C)(CC=O)C2=C1[C@@H](C)[C@@H]1CC[C@H](C)[C@]1(O)C2=O,65.4,< 10,8.48,–,–,–
CC(C)=CC1O[C@@]2(C)CC[C@]3(OC(=O)C=C3C)O[C@]13[C@H]2C(=O)[C@@]1(O)[C@@H](C)CC[C@H]1[C@@H]3C (some centres not stated),40.9,< 10,–,–,–,–
CC(C)=C[C@H]1O[C@@](C)(C/C=C2\NC(=O)C=C2C)[C@@H]2C(=O)[C@@]3(O)[C@@H](C)CC[C@H]3[C@H](C)[C@@]21O,44,< 10,–,–,–,–
CC(C)=C[C@H]1O[C@@](C)(CC[C@@H]2OC(=O)C=C2C)[C@@H]2C(=O)[C@H]3[C@@H](CC[C@@H]3C)[C@H](C)[C@@]21O,57.6,26.7,23.6,–,–,–
CC(C)=CC(=O)[C@@]1(O)[C@@H](C)[C@@H]2CC[C@H](C)[C@H]2C(=O)[C@]1(O)[C@@H](C)CC[C@@H]1OC(=O)C=C1C,32.1,< 10,–,–,–,–
CC(C)=C[C@H]1O[C@@]2(C)C[C@H]([C@]3(O)OC(=O)C=C3C)O[C@]13[C@H]2C(=O)[C@@]1(O)[C@@H](C)CC[C@H]1[C@@H]3C,43.6,26,–,–,–,–
CC(C)=C[C@H]1O[C@@]2(C)C[C@H](c3occc3C)O[C@]13[C@H]2C(=O)[C@@]1(O)[C@@H](C)CC[C@H]1[C@@H]3C,57.7,18.6,22,–,–,–
CC(C)=CC(=O)[C@@]1(O)[C@@H](C)[C@@H]2CC[C@H](C)[C@H]2C(=O)[C@@]12OC(=O)C[C@@H]2C,39.6,< 10,–,–,–,–
Norleucosceptroid K,–,–,–,33.6,12.1,–
CC(C)=CC(=O)[C@]12O[C@@H]([C@]3(O)OC(=O)C=C3C)C[C@H](C)[C@@]1(O)C(=O)[C@H]1[C@@H](CC[C@@H]1C)[C@@H]2C,36.9,< 10,–,–,–,–
CC(C)=C[C@H]1O[C@@](C)(CCc2occc2C)[C@@H]2C(=O)[C@@]3(O)[C@@H](C)CC[C@H]3[C@H](C)[C@@]21O,40.4,16.8,–,–,–,–
CC(C)=C[C@H]1O[C@@](C)(CC[C@@H]2OC(=O)C=C2C)[C@@H]2C(=O)[C@@]3(OO)[C@@H](C)CC[C@H]3[C@H](C)[C@@]21O,29.9,11.8,–,–,–,–
CC(C)=CC1O[C@@]2(C)CC[C@]3(OC(=O)C=C3C)O[C@]13[C@H]2C(=O)[C@H]1[C@@H](CC[C@@H]1C)[C@@H]3C (some centres not stated),69.4,51.5,12.6,–,–,25.8
CC(C)=C[C@H]1O[C@@](C)(CC[C@@]2(O)OC(=O)C=C2C)[C@@H]2C(=O)[C@@H]3[C@@H](CC[C@@H]3C)[C@H](C)[C@@]21O,47.5,15.3,–,–,–,–
CC(C)=C[C@H]1O[C@@](C)(CCO)C2=C1[C@@H](C)[C@@H]1CC[C@H](C)[C@]1(O)C2=O,39.6,< 10,–,–,–,–
